Assay in all cases: inhibition of tumour cell growth, NCI panel, 48 h
Test [1] relates to OVCAR-4 ovarian.
The subject of test [2] is OVCAR-8 ovarian.
Test [3] deals with T-47D breast.
Test [4] relates to A498 renal.
The subject of test [5] is U251 CNS.
Test [6] relates to SF-268 CNS.
Test [7] relates to HT29 colon.
Test [8] has as its system UACC-62 melanoma.
Test [9] has as its system KM12 colon.
Test [10] deals with TK-10 renal.

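Test compounds were applied to cells in 96-well plates for 48 hours at 5 doses. At the GI50, growth is halved. The concentration for full growth arrest is given as TGI.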 Bounds are passed on as bounds.

As for `C[C@H]1c2ccccc2CN1CCCOc1cc2c(cc1OCC1CC1)C1(CCCC1)C(N)=N2`, the GI50 in test [1] is 1830 nM; in [2] it was 2380 nM; in test [3], 990 nM; in test [4], 1560 nM; in test [5] it was 1310 nM; in [6] it was 2940 nM. The GI50 in [7] was 1050 nM; in test [8], 925 nM; in test [9], 2030 nM; in test [10] it was 2070 nM. Further, the TGI turned out to be 7.42 µM in [1]; 8.83 µM in [2]; 2.5 µM in test [3]; 5.69 µM in test [4]; 4.08 µM in test [5]; 10.3 µM in test [6]. Further, the TGI was determined as 2.67 µM in [7], 1.93 µM in test [8], 7.69 µM in test [9] and 8.26 µM in test [10].
Consider `O=NN(CCCl)C(=O)NC1CCC(=O)NC1=O` (stereo not given), for which the TGI in test [1] is more than 993 µM; in [2], 293 µM; in test [3], 892 µM; in test [4] it was 470 µM; in test [5] it was 305 µM; in test [6], 615 µM. Besides, the TGI was more than 1250 µM in test [7], 192 µM in test [8], 578 µM in test [9] and 1050 µM in [10].
Turning to `CCN(CC)C(=O)COc1cc2c(O)c3c(O)c(C)c4c(c13)C(=O)C(C)(OC=CC(OC)C(C)C(OC(C)=O)C(C)C(O)C(C)C(O)C(C)C=CC=C(C)C(=O)N2)O4` (stereo not given), the TGI in [1], in [2], in [3], in test [4], in test [5] and in test [6] was more than 100 µM each time. In addition, the TGI in [7], in [8], in test [9] and in test [10] was more than 100 µM in each case.

For the origin of these results see PubChem BioAssay (NCI).
